# Activity calls are given as the source filed them.
# What was measured:
# [1] = NIH:OVCAR-3 ovarian cancer cell cytotoxicity, dose response, PAX8 inhibitor project, plate reader, dry powder samples (AID 743044); format: functional, cell-based
# [2] = IGROV1 ovarian cancer cell cytotoxicity, dose response, PAX8 inhibitor project, plate reader, dry powder samples (AID 743043); format: functional, cell-based; settings: IGROV-1
# Paired box protein Pax-8 = Paired box protein Pax-8 (Homo sapiens, UniProt Q06710); assay: inhibitors of PAX8-driven TPO luciferase reporter, dose response, RMG-I cells, cherry-pick (AID 687027); format: functional, cell-based;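 further: luciferase reporter driven by Pax8 target thyroperoxidase promoter measured by SteadyGlo luminescence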
# Paired box protein Pax-8, sequence (Q06710 whole entry): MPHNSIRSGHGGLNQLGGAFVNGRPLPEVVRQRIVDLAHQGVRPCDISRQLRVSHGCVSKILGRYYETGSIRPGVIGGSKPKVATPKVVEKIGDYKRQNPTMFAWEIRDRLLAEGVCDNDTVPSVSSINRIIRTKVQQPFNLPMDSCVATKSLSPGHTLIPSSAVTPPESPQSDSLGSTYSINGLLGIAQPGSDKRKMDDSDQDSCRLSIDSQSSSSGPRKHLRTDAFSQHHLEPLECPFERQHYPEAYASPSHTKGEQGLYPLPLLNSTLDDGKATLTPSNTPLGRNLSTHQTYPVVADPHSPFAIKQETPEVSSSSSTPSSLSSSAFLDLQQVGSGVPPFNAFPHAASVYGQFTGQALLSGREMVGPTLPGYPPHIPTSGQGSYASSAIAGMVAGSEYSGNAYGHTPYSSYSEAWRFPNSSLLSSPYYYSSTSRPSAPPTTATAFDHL
# [3] = biological target: T1, Small ubiquitin-related modifier 1 (Homo sapiens, UniProt P63165); assay: inhibitors of SUMO1 peptide binding, dose response, biochemical, fluorescence polarization, uHTS hits (AID 624382); format: functional; settings: read-out: IC50_Mean
# T1 sequence (P63165 whole entry): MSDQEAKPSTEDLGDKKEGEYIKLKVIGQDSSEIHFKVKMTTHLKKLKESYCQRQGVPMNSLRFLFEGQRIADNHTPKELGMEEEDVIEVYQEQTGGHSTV
# [4] = biological target: T1, Small ubiquitin-related modifier 1; assay: inhibitors of SUMO1 partner interactions, dose response, biochemical, FRET (AID 624383); format: functional; settings: read-out: IC50_Mean
# [5] = biological target: Dual specificity protein phosphatase 3 (Homo sapiens, UniProt P51452); assay: VHR phosphatase inhibition, dose response, selectivity assay for STEP inhibitor project, biochemical (AID 602374); format: functional; settings: read-out: IC50_Mean
# Dual specificity protein phosphatase 3, sequence (P51452 whole entry): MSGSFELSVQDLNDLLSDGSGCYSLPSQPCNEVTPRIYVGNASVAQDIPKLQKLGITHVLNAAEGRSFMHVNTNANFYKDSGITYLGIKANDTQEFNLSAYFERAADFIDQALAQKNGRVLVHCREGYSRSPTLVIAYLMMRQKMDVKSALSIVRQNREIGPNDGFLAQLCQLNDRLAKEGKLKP
# [6] = biological target: Tyrosine-protein phosphatase non-receptor type 5 (Homo sapiens, UniProt P54829); assay: STEP phosphatase inhibitors, confirmation, biochemical, fluorescence intensity, uHTS hits (AID 602372); format: functional; settings: read-out: IC50_Mean
# Tyrosine-protein phosphatase non-receptor type 5, sequence (P54829 whole entry, the tested form may be a part): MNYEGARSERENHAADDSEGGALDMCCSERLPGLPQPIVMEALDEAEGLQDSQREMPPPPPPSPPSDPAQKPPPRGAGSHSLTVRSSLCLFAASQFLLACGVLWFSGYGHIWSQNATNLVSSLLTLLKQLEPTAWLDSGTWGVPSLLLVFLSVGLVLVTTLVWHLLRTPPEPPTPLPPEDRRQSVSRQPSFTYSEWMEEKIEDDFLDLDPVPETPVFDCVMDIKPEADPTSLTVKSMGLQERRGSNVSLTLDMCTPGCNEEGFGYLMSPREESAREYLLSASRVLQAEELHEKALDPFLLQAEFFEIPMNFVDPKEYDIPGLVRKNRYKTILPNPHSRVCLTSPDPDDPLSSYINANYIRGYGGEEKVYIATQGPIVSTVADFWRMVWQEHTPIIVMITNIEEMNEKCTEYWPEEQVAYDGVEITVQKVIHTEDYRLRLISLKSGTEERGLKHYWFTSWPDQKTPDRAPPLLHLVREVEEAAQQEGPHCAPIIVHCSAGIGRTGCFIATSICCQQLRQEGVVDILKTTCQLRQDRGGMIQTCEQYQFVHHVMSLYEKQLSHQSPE
# [7] = biological target: Arf-GAP with SH3 domain, ANK repeat and PH domain-containing protein 1 (Homo sapiens, UniProt Q9ULH1); format: functional;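 further: biochemical fluorescence polarization dose–response screen measuring inhibition of ASAP1; ASAP1 GAP domain stimulating GTP hydrolysis by truncated human ARF1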
# Arf-GAP with SH3 domain, ANK repeat and PH domain-containing protein 1, sequence (Q9ULH1 whole entry, the tested form may be a part): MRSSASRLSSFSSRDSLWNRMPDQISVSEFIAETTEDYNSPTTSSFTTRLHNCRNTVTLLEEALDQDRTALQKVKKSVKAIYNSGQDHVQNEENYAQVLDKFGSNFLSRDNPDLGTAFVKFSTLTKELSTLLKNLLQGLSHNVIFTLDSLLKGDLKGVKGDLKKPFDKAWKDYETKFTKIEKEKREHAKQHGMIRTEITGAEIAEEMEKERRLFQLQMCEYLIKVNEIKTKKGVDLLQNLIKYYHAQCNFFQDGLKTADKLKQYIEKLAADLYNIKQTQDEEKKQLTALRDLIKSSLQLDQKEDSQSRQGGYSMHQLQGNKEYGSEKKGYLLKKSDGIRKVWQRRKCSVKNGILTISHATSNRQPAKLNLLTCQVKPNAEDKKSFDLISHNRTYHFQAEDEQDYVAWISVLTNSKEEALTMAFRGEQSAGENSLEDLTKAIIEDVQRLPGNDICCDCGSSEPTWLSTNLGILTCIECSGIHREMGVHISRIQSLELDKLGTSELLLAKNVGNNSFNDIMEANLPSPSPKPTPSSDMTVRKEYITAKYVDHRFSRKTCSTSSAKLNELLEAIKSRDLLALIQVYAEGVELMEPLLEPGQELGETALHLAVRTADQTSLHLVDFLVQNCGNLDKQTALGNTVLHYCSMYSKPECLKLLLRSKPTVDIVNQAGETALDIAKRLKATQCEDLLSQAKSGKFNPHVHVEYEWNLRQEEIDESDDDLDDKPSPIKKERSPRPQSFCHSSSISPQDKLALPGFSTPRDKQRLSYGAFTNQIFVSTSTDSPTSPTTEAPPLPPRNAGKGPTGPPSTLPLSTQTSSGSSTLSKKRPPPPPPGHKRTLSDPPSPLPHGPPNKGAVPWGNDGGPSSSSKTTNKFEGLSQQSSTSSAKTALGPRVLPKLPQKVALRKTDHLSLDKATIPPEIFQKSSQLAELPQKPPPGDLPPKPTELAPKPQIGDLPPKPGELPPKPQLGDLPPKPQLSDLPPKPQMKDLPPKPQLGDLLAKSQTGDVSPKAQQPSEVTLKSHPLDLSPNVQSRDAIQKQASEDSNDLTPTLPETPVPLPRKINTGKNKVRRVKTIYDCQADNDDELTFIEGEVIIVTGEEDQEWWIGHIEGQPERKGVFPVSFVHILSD
# [8] = biological target: Tyrosine-protein phosphatase non-receptor type 11 (Homo sapiens, UniProt Q06124); assay: SHP2 phosphatase inhibition, dose response, selectivity assay for STEP inhibitor project, biochemical (AID 602367); format: functional; settings: read-out: IC50_Mean
# Tyrosine-protein phosphatase non-receptor type 11, sequence (Q06124 whole entry, the tested form may be a part): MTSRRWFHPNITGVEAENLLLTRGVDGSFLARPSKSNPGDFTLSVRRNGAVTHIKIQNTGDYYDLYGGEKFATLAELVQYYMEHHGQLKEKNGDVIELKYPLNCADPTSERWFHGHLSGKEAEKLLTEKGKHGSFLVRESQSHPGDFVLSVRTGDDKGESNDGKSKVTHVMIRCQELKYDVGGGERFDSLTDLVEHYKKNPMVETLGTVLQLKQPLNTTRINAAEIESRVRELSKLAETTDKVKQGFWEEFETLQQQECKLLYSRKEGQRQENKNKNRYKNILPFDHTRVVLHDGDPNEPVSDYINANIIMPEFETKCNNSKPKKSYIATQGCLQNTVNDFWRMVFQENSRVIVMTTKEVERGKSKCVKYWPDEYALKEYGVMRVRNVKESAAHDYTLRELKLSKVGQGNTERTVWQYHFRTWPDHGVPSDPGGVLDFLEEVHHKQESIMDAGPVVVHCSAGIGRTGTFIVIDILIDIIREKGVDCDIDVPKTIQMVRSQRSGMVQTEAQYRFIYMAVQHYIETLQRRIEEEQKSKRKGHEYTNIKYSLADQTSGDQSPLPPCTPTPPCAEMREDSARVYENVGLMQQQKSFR
# [9] = biological target: T2, Carboxy-terminal domain RNA polymerase II polypeptide A small phosphatase 1 (Homo sapiens, UniProt Q9GZU7); assay: inhibitors of CTDSP1, concentration-response testing, biochemical assay, absorbance-based, actives from ultra-high-throughput screening (AID 540297); format: functional
# T2 sequence (Q9GZU7 whole entry): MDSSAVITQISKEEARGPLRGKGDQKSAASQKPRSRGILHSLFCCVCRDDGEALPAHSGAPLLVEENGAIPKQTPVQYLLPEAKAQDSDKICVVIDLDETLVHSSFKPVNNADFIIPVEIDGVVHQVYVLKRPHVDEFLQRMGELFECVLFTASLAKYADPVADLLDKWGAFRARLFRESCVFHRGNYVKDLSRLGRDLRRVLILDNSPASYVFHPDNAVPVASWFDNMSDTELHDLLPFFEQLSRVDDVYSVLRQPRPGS
# [10] = HEK293T cytotoxicity, dose response, cytotoxicity control for miR-122 modulator project, cell-based, inhibitor set, cherry-pick, set 2 (AID 720697); format: functional
# [11] = biological target: DNA repair protein RAD52 homolog (Homo sapiens, UniProt P43351); format: functional, biochemical
# H9c2 = assay: cells; format: functional, cell-based; settings: Rattus norvegicus, H9c2, Myocardium;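 further: confirmatory concentration-response retest of ultra-high-throughput screening hits for modulation of myocardial damage; cell death induced by hydrogen peroxide oxidative stress; compound pretreatment for 60 min then peroxide exposure for 2 h; potency is for protecting the cells against peroxide damage rather than for killing them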
# cells = format: functional, cell-based
# [12] = biological target: T3, Nuclear receptor subfamily 0 group B member 1 (Homo sapiens, UniProt P51843); format: functional, cell-based;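 further: HEK293T cells transfected with SF-1 and DAX-1 plus StAR promoter luciferase reporter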
# T3 sequence (P51843 whole entry): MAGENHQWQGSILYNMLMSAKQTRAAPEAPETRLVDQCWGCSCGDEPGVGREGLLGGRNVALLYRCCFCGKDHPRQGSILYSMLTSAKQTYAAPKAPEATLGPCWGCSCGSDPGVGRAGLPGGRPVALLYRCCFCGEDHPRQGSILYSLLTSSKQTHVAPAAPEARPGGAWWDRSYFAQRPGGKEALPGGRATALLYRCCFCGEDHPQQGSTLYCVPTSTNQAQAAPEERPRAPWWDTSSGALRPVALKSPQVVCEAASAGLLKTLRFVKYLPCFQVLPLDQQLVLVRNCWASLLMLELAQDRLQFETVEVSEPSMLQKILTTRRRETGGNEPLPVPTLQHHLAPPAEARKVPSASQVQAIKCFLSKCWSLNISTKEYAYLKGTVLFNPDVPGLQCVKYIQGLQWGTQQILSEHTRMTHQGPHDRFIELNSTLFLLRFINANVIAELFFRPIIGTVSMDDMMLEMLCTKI
# [13] = biological target: 5-hydroxytryptamine receptor 2A (Mus musculus, UniProt P35363); format: functional, cell-based;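 further: CHO-K1 cells with tagged receptor and beta-arrestin; agonist potency measured as compound-induced activation of the receptor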
# 5-hydroxytryptamine receptor 2A, sequence (P35363 whole entry): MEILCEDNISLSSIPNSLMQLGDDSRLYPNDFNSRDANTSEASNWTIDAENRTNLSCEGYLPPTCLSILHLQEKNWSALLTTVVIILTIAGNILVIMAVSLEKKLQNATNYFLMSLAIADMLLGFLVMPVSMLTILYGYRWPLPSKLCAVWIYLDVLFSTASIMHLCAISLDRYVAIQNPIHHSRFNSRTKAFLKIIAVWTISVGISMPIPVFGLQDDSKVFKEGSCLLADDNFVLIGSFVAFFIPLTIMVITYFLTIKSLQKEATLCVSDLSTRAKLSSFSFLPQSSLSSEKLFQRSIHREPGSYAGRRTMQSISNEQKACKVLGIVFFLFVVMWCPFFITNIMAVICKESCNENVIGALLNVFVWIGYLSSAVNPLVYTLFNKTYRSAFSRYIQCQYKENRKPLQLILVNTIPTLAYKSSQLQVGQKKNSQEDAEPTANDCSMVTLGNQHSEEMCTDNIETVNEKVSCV
# Mu-type opioid receptor = Mu-type opioid receptor (Homo sapiens, UniProt P35372); format: functional, cell-based;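 further: U2OS cells with beta-arrestin recruitment to OPRM1 by beta-gal complementation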
# Mu-type opioid receptor, sequence (P35372 whole entry): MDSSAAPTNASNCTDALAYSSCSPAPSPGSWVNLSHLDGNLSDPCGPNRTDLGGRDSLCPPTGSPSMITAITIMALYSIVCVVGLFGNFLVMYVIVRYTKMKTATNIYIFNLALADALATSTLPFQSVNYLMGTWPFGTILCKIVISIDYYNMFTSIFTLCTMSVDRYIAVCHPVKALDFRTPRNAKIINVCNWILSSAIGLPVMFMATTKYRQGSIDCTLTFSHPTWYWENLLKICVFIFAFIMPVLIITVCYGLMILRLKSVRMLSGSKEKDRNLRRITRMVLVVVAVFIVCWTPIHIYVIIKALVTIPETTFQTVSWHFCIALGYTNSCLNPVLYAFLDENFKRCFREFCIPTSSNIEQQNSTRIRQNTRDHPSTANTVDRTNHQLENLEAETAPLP
# [14] = HEK293T cytotoxicity, dose response, cytotoxicity control for miR-122 modulator project, cell-based, activator set, cherry-pick (AID 720690); format: functional;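 further: HEK293T human cells scored for general mammalian cytotoxicity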
# [15] = off-target signal loss in HeLa-CEM21 co-culture – HeLa F-luc CTL cells, cherry-picked, counter-screen for HIV-1 Env fusion inhibitor project, dose response (AID 652040); format: functional, cell-based;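 further: potency for signal decrease marking cytotoxic or nonspecific inhibition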
# [16] = ZM109 Env clade C HIV-1 fusion inhibitors, dose response, HeLa effector, CEM target cells, luciferase, cherry-pick (AID 652058); format: functional, cell-based
# [17] = inhibitors of clade B AD8 Env fusion, dose response, cell-based, cherry-pick (AID 652062); format: functional;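 further: luciferase signal from cell-cell fusion driven by HIV-1 clade B AD8 Env; potency is for inhibitors of fusion seen as a drop in luminescence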
# [18] = inhibitors of HIV Env-driven cell fusion, dose response, cherry-pick (AID 652057); format: functional, cell-based
# [19] = CEM21 lymphoblast cell cytotoxicity, dose response, cytotoxicity control for viral fusion inhibitor project, CellTiter-Glo luminescence, cherry-picked (AID 652042); format: functional, cell-based;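 further: potency for signal decrease meaning cytotoxicity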
# [20] = HeLa 4N DNA content increase, dose response, cell-based, IC50 (AID 1117351); format: functional
# [21] = RKO cell viability reduction, dose response, CellTiter-Glo luminescence (AID 1117322); format: functional
# [22] = Concentration-dependent survival of SW480 colon cancer line, luminescence detection with CellTiter-Glo, half-maximal inhibitory concentration (AID 1117338); format: functional
# [23] = cytotoxicity toward HCT116 cells – cell-based, CellTiter-Glo luminescence, IC50, dose response (AID 1117332); format: functional; settings: HCT-116
# [24] = SNU-C1 cell viability reduction, dose response, CellTiter-Glo luminescence (AID 1117323); format: functional, cell-based
# [25] = cytotoxicity toward Colo320 cells – cell-based, CellTiter-Glo luminescence, IC50, dose response (AID 1117334); format: functional; settings: COLO 320
# [26] = cytotoxicity toward HT-29 cells – cell-based, CellTiter-Glo luminescence, IC50, dose response (AID 1117330); format: functional
# [27] = HeLa 2N DNA content increase, dose response, cell-based, IC50 (AID 1117349); format: functional
# [28] = cytotoxicity toward NIH3T3 fibroblasts, dose response, counter-screen, cell-based, ATP luminescence, mouse fibroblasts (AID 2010); format: functional;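 further: cells exposed to compound for about 90 hours before reading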
# [29] = inhibitors of intracellular T. cruzi replication, confirmation, NIH3T3 host cells, beta-gal luminescence (AID 2044); format: functional, cell-based;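 further: intracellular parasites grown in NIH/3T3 mouse fibroblasts as host cells; luminescent beta-galactosidase reporter signal from transgenic T. cruzi replicating inside host cells; inhibitors lower the luminescence signal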
# Beta-galactosidase = Beta-galactosidase (Escherichia coli, UniProt Q8VNN2); assay: Dose response counterscreen for EBI2 assay utilizing the enzyme, b-galactosidase.; format: functional
# Beta-galactosidase, sequence (Q8VNN2 whole entry): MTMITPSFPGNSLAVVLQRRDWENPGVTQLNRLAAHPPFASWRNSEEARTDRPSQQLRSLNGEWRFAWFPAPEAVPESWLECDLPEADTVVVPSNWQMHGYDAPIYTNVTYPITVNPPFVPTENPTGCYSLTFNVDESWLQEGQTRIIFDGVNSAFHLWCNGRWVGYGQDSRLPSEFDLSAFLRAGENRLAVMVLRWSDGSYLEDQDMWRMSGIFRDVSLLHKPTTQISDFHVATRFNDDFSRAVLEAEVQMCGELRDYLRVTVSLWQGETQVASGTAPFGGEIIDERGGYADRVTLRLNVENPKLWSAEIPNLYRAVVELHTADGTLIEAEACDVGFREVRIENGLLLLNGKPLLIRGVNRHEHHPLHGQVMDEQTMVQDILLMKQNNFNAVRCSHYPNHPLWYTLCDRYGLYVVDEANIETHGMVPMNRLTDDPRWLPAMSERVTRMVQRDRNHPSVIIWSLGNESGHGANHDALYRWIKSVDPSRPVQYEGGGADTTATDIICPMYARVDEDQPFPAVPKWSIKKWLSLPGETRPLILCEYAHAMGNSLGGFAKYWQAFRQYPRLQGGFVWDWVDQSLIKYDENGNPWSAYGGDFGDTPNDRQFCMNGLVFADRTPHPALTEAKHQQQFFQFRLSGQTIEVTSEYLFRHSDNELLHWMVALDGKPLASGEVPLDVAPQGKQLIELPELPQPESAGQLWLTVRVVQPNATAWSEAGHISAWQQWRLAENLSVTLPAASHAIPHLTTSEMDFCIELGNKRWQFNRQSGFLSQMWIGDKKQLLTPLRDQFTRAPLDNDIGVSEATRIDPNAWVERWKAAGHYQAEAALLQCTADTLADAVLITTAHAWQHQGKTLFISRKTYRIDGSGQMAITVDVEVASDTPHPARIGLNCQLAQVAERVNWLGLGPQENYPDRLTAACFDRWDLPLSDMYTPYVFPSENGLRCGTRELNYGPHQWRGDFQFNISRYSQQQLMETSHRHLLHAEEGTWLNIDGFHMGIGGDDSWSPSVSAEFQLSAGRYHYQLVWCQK
# [30] = biological target: Histone-lysine N-methyltransferase NSD2 (Homo sapiens, UniProt O96028); format: biochemical
# [31] = biological target: T4, Low molecular weight phosphotyrosine protein phosphatase (Homo sapiens, UniProt P24666); format: functional; settings: read-out: IC50_Mean
# T4 sequence (P24666 whole entry): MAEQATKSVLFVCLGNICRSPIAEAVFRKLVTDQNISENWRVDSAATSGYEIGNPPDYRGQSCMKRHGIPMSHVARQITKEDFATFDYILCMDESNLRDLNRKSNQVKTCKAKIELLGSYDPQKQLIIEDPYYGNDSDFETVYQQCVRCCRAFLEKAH
# [32] = biological target: T5, Corticotropin-releasing factor receptor 2/Corticotropin-releasing factor-binding protein (Homo sapiens, UniProt P24387+Q13324); assay: Dose Response confirmation of uHTS hits for small molecule antagonists of the CRF-binding protein and CRF-R2 receptor complex.; format: functional; settings: read-out: IC50_Mean
# T5 sequence (Q13324 whole entry): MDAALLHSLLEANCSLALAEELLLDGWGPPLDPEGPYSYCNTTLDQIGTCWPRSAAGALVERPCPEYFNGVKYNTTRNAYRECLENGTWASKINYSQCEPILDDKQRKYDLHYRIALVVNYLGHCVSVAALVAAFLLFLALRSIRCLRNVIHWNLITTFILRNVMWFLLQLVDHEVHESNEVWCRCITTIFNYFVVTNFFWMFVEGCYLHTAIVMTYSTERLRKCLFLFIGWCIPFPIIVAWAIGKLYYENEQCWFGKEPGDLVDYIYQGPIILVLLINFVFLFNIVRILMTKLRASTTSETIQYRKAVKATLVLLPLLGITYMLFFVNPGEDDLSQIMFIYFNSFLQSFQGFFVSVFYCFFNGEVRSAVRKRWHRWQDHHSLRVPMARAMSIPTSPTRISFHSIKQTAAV
# T5 sequence (P24387 whole entry): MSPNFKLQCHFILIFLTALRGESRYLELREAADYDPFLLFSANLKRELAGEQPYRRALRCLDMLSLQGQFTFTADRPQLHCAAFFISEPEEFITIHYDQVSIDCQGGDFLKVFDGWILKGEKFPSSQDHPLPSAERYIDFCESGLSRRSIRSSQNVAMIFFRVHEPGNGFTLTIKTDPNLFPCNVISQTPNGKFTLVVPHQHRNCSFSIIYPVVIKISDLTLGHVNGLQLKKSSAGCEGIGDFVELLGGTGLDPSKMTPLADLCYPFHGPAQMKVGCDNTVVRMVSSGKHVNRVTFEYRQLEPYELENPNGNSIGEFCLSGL
# [33] = biological target: T5, Corticotropin-releasing factor receptor 2/Corticotropin-releasing factor-binding protein; assay: activators of CRF receptor 2 with binding protein – uHTS hits, confirmation (AID 602473); format: functional; settings: read-out: EC50_Mean
# [34] = biological target: T4, Low molecular weight phosphotyrosine protein phosphatase; format: functional; settings: read-out: IC50_Mean; remark: listed apart in the source
# [35] = biological target: FAD-linked sulfhydryl oxidase ALR (Homo sapiens, UniProt P55789); assay: inhibitors of human ALR sulfhydryl oxidase, dose response, biochemical, H2O2 detection, luminescence, cherry-pick (AID 493248)
compound,measurement,setting,value
C[C@H]1CCCCO[C@H](CN(C)Cc2ccc(C(F)(F)F)cc2)[C@@H](C)CN([C@@H](C)CO)C(=O)c2cc(NC(=O)c3ccccc3)ccc2O1,AC50,[1],21.2 µM (active)
same,AC50,[2],36.4 µM (active)
same,AC50,Paired box protein Pax-8,8.95 µM (active)
O=C(N/N=C/c1ccc(Cl)c([N+](=O)[O-])c1)c1ccc2c(c1)OCCO2,IC50,[3],> 66.6 µM (inactive)
same,IC50,[4],9.57 µM (active)
same,IC50,[5],2.29 µM (active)
same,IC50,[6],7.3 µM (active)
same,IC50,[7],10.9 µM (inactive)
same,IC50,[8],1.93 µM (active)
same,IC50,[9],4.44 µM (active)
C[C@@H]1CN([C@@H](C)CO)C(=O)c2cc(NC(=O)NC3CCCCC3)ccc2O[C@@H]1CN(C)C(=O)Nc1ccc2c(c1)OCO2,AC50,[10],9.33 µM (active)
CN(C)CCCNc1ncnc2oc(-c3ccccc3)c(-c3ccccc3)c12,AC50,[11],21.7 µM (active)
COc1cc(/C=C(\C#N)C(=O)Nc2ccccc2F)ccc1OCCN1CCOCC1,IC50,H9c2,8.88 µM (active)
same,IC50,cells,> 67.5 µM (inactive)
same,IC50,[12],> 67.5 µM (inactive)
COc1ccc(CN2CCN(C(=O)c3cccs3)CC2)cc1,EC50,[13],76.1 µM (inactive)
same,EC50,Mu-type opioid receptor,92.5 µM (inactive)
C[C@H]1CN([C@@H](C)CO)S(=O)(=O)c2ccc(-c3ccccc3F)cc2O[C@@H]1CN(C)Cc1cccnc1,AC50,[14],23 µM (active)
COC(=O)[C@]12C[C@H](CC(=O)NCC3CCCCC3)C(=O)N(CCC3=CCCCC3)C1=C[C@H](C(C)(C)C)O[C@@H]2C,AC50,[15],3.68 µM (active)
same,AC50,[16],3.66 µM (active)
same,AC50,[17],3.6 µM (active)
same,AC50,[18],2.45 µM (active)
same,AC50,[19],21.5 µM (active)
COC(=O)Nc1nc2ccc(C(=O)C3CC3)cc2[nH]1 [CYCLOBENDAZOLE],IC50,[20],0.416 µM (active)
same,IC50,[21],0.162 µM (active)
same,IC50,[22],> 20 µM (inactive)
same,IC50,[23],0.174 µM (active)
same,IC50,[24],> 20 µM (inactive)
same,IC50,[25],0.156 µM (active)
same,IC50,[26],1.68 µM (active)
same,IC50,cells,> 67.5 µM (inactive)
same,IC50,[12],> 67.5 µM (inactive)
same,IC50,[27],0.417 µM (active)
COc1cccc(-c2cc(C(=O)N3CCN(C(c4ccccc4)c4ccccc4)CC3)no2)c1,EC50,[28],25.2 µM (active)
same,EC50,[29],1.61 µM (active)
same,IC50,Beta-galactosidase,> 80 µM (inactive)
Nc1ccc2nn(-c3cc([N+](=O)[O-])ccc3O)nc2c1,AC50,[30],> 20 µM (inactive)
COc1ccc(OCC(=O)N2CCN(S(=O)(=O)c3ccc(Cl)s3)CC2)cc1,IC50,Beta-galactosidase,> 80 µM (inactive)
O=[N+]([O-])c1ccc(O)c(Nc2ncnc3ccccc23)c1,IC50,[31],16.1 µM (active)
same,IC50,[32],> 47.1 µM (inactive)
same,IC50,[5],1.77 µM (active)
same,IC50,[6],13.3 µM (active)
same,EC50,[33],> 53 µM (inactive)
same,IC50,[8],1.98 µM (active)
same,IC50,[34],7.06 µM (active)
COc1cc(Br)cc(CN2CCN(c3ncccn3)CC2)c1O,AC50,[35],> 100 µM (inactive)
same,EC50,[13],1.02 µM (active)
same,EC50,Mu-type opioid receptor,92.5 µM (inactive)
COc1ccc(C(=O)Nc2nc3cc4c(cc3s2)OCO4)c(OC)c1,IC50,[7],50.8 µM (inactive)
